Results reported in PMC13089524, “Development of SYK NanoBRET cellular target engagement assays for gain–of–function variants” (Frontiers in chemical biology, 2024).
Entries after “also recorded” stand apart in the source; their conditions may differ.

What was measured:
[1] = molecular target: T1, SYK(S550F)-NL (Homo sapiens, UniProt P43405, S550F); assay: NanoBRET assay in digitonin permeabilized HEK293 cells, SYK(S550F)-NL; assay type: cell-based; settings: fixed concentration of tracer 8, average ± SEM, read-out: IC50, SYK(variant)-NL S550F
T1 construct: host or cells: HEK293
Experimental: (§1) We performed NanoBRET tracer optimization to determine if the SYK tracers could effectively generate a BRET signal. […] To enable the NanoBRET assay using tracer 8 with cells permeabilized by digitonin, a tracer dose–response study was performed for each SYK(GoF) variant and SYK(WT) (Figure 3A), followed by tracer titration experiments (Figure 3B; Supplementary Figure S3). […] Initially, we determined the EC50 of tracer 8 for each SYK(GoF) variant and SYK(WT). […] Plates were incubated for 25 min at room temperature if digitonin was added or for 2 h at 37°C in 5% CO2 for the intact cell NanoBRET assay. […] For intact live cells in a 96-well plate, the 3X stock solution was prepared with 30 μL of NanoBRET NanoGlo substrate, 10 μL of extracellular NanoLuc inhibitor, and 4,960 μL of Opti-MEM without phenol red. […] Raw milliBRET units (mBU) were read on a GloMax Discover system (Promega) with a donor emission wavelength of 450 nm and an acceptor emission wavelength of 600 nm. mBU were calculated by dividing the acceptor emission values (600 nm) by the donor emission values (450 nm). For NanoBRET studies with SYK, background corrected mBU were calculated by subtracting the no tracer wells from the tracer-containing wells and multiplying by 1,000. […]

[2] = tested on: pSYK(Y525/526) in SW480 cells stably expressing SYK(S550Y); assay: SYK phosphorylation western blot in SW480 cells stably expressing SYK(S550Y); assay type: cell-based
Experimental: SW480 cells stably expressing S550Y variant were maintained as previously described ([Wang et al., 2021]). For SYK S550Y inhibition, cells were seeded in 12-well plate, at 10^6 cells/well. The next day, medium was replaced and MRL-SYK inhibitor was added at 10 μM and 100 nM for 20 h. Protein lysates were prepared and analyzed on Western blot as previously described ([Wang et al., 2021]).

[3] = tested on: SRC, NTRK1, NTRK3, FGR, FYN, FER, and JAK2; settings: ref Sgc et al., 2024; cited from earlier work
[4] = molecular target: T2, SYK(P342T)-NL (Homo sapiens, UniProt P43405, P342T); assay: NanoBRET cellular target engagement assay in intact live HEK293 cells, SYK(P342T)-NL; assay type: cell-based
T2 construct: host or cells: HEK293
Experimental: (§2) NL orientations used in the respective assays are indicated. […] Plates were incubated for 25 min at room temperature if digitonin was added or for 2 h at 37°C in 5% CO2 for the intact cell NanoBRET assay. […] For intact live cells in a 96-well plate, the 3X stock solution was prepared with 30 μL of NanoBRET NanoGlo substrate, 10 μL of extracellular NanoLuc inhibitor, and 4,960 μL of Opti-MEM without phenol red. For digitonin permeabilized live cells in a 96-well plate, the 3X stock solution was prepared with 30 μL of NanoBRET NanoGlo substrate and 4,970 μL of Opti-MEM without phenol red. Raw milliBRET units (mBU) were read on a GloMax Discover system (Promega) with a donor emission wavelength of 450 nm and an acceptor emission wavelength of 600 nm. mBU were calculated by dividing the acceptor emission values (600 nm) by the donor emission values (450 nm). For NanoBRET studies with SYK, background corrected mBU were calculated by subtracting the no tracer wells from the tracer-containing wells and multiplying by 1,000.
(§3) MRL-SYKi was used to compete away the NanoBRET signal produced with tracer 8. […] Tracer 8 was prepared in DMSO and DMEM without phenol red in 11-point dose-response format with 3 μM as the top concentration, with a final assay plate concentration of 1% DMSO. 10X stock solutions of MRL-SYKi were prepared from 10 mM DMSO stock solution with room temperature Opti-MEM without phenol red, for final assay plate concentrations of 10 μM. 10 μL of 8 (10X) was added to each well, with the exception of the no tracer control wells, and 10 μL of 10X solutions of MRL-SYKi was added to wells for tracer competition. One biological replicate was plotted in GraphPad Prism with [inhibitor] vs response (three parameters).
(§4) MRL-SYKi was tested in 11-point dose–response format with a top concentration of 10 μM. […] The final assay plate concentrations included 1% DMSO. 5 μL of 8 (20X) was added to each well, except the no tracer control wells, and 10 μL of 10X threefold diluted solutions of MRL-SYKi was added to wells. Two biological replicates were plotted in GraphPad Prism with log[inhibitor] vs response (three parameters) with the error bars indicating standard deviation.
(§5) Compounds were tested in 11-point dose–response format with a top concentration of 10 μM. Data are reported as IC50 ± standard error mean (SEM). One biological replicate was plotted in GraphPad Prism with log[inhibitor] vs response (three parameters), the three IC50’s were averaged and the SEM was calculated.

[5] = molecular target: T3, SYK (Homo sapiens, UniProt P43405); assay: Eurofins DiscoverX SYK enzymatic radiometric assay; assay type: biochemical; settings: Km value for ATP, 9-pt dose-response
T3 construct: purchased Eurofins DiscoverX (contract assay service)
Source text: Eurofins kinase enzymatic radiometric assays were executed at the Km value for ATP in dose–response (9-pt curve) format for SYK, included in Table 1 as enzymatic IC50 values.

[6] = molecular target: T1, SYK(S550F)-NL; assay: NanoBRET cellular target engagement assay in intact live HEK293 cells, SYK(S550F)-NL; assay type: cell-based
Experimental: as §2, §3, §4, §5

[7] = molecular target: T4, SYK(P342T) (Homo sapiens, UniProt P43405, P342T); assay: PhosphoSens SOX peptide kinase activity assay, SYK(P342T); assay type: biochemical; settings: purified protein, 1 mM ATP
T4 construct: The full-length SYK GoF variants SYK(S550F) and SYK(P342T) along with SYK(WT) were purified from insect cells (Sf9); 6His (N, cleaved yes); GST (N, cleaved yes); made in house; host or cells: Sf9 insect cells (baculovirus, pFastbac1)

[8] = molecular target: T5, SYK(S550F) (Homo sapiens, UniProt P43405, S550F); assay: PhosphoSens SOX peptide kinase activity assay, SYK(S550F); assay type: biochemical; settings: purified protein, 1 mM ATP
T5 construct: The full-length SYK GoF variants SYK(S550F) and SYK(P342T) along with SYK(WT) were purified from insect cells (Sf9); 6His (N, cleaved yes); GST (N, cleaved yes); made in house; host or cells: Sf9 insect cells (baculovirus, pFastbac1)

[9] = tested on: kinases of the KINOMEscan panel; settings: ref Sgc et al., 2024; cited from earlier work
[10] = tested on: GPCR scan and panel of 113 enzymes and receptors; settings: at 10 μM; ref Sgc et al., 2024; cited from earlier work
[11] = molecular target: T6, SYK(S550Y)-NL (Homo sapiens, UniProt P43405, S550Y); assay: NanoBRET cellular target engagement assay in intact live HEK293 cells, SYK(S550Y)-NL; assay type: cell-based; settings: for IC50: tracer titration
T6 construct: host or cells: HEK293
Experimental: as §2, §3, §4, §5

[12] = molecular target: T2, SYK(P342T)-NL; assay: NanoBRET assay in digitonin permeabilized HEK293 cells, SYK(P342T)-NL; assay type: cell-based; settings: fixed concentration of tracer 8, average ± SEM, read-out: IC50, SYK(variant)-NL P342T
Experimental: as §1

[13] = molecular target: T7, SYK(M450I)-NL (Homo sapiens, UniProt P43405, M450I); assay: NanoBRET assay in digitonin permeabilized HEK293 cells, SYK(M450I)-NL; assay type: cell-based; settings: fixed concentration of tracer 8, average ± SEM, read-out: IC50, SYK(variant)-NL M450I
T7 construct: host or cells: HEK293
Experimental: as §1

[14] = molecular target: T8, SYK(A353T)-NL (Homo sapiens, UniProt P43405, A353T); assay: NanoBRET assay in digitonin permeabilized HEK293 cells, SYK(A353T)-NL; assay type: cell-based; settings: fixed concentration of tracer 8, average ± SEM, read-out: IC50, SYK(variant)-NL A353T
T8 construct: host or cells: HEK293
Experimental: as §1

[15] = molecular target: T9, SYK(WT)-NL (Homo sapiens, UniProt P43405); assay: NanoBRET assay in digitonin permeabilized HEK293 cells, SYK(WT)-NL; assay type: cell-based; settings: fixed concentration of tracer 8, average ± SEM, read-out: IC50, SYK(variant)-NL WT
T9 construct: SYK tracers enable BRET with full-length SYK(WT) after digitonin permeabilization; host or cells: HEK293
Experimental: We performed NanoBRET tracer optimization to determine if the SYK tracers could effectively generate a BRET signal. […] To enable the NanoBRET assay using tracer 8 with cells permeabilized by digitonin, a tracer dose–response study was performed for each SYK(GoF) variant and SYK(WT) (Figure 3A), followed by tracer titration experiments (Figure 3B; Supplementary Figure S3). […] Initially, we determined the EC50 of tracer 8 for each SYK(GoF) variant and SYK(WT). […] Plates were incubated for 25 min at room temperature if digitonin was added or for 2 h at 37°C in 5% CO2 for the intact cell NanoBRET assay. […] For intact live cells in a 96-well plate, the 3X stock solution was prepared with 30 μL of NanoBRET NanoGlo substrate, 10 μL of extracellular NanoLuc inhibitor, and 4,960 μL of Opti-MEM without phenol red. For digitonin permeabilized live cells in a 96-well plate, the 3X stock solution was prepared with 30 μL of NanoBRET NanoGlo substrate and 4,970 μL of Opti-MEM without phenol red. Raw milliBRET units (mBU) were read on a GloMax Discover system (Promega) with a donor emission wavelength of 450 nm and an acceptor emission wavelength of 600 nm. mBU were calculated by dividing the acceptor emission values (600 nm) by the donor emission values (450 nm). For NanoBRET studies with SYK, background corrected mBU were calculated by subtracting the no tracer wells from the tracer-containing wells and multiplying by 1,000.
HEK293 cells were transfected with constructs of SYK(WT) or SYK(KD) tagged with NL on the C- or N-terminus and SYK GoF variants tagged with NL on the C-terminus. Tracer 8 (20X) was prepared from a 400 μM stock solution in DMSO with tracer dilution buffer (Promega, #N291B) and 20% DMSO, with a final assay plate concentration of 1% DMSO. 5 μL of 8 (20X) was added to each well, with exception of the no tracer control wells, with final plate concentrations of 0.5, 1, and 2 μM. 10 μL of digitonin (Fisher, 10X, 500 μg/mL) was added to specific wells to permeabilize the cells. The 10X digitonin stock was prepared by diluting a 40X DMSO solution of digitonin with room temperature Opti-MEM without phenol red, for a final assay plate concentration of 1% DMSO. SYK inhibitor stock solutions of MRL-SYKi (10X) were prepared from 10 mM DMSO stock solutions with room temperature Opti-MEM without phenol red, for final assay plate concentrations of 10 μM. Plates were incubated for 25 min at room temperature if digitonin was added or for 2 h at 37°C in 5% CO2 for the intact cell NanoBRET assay. Two technical replicates were plotted in a bar chart with the standard deviation represented as error bars on Graphpad Prism.

[16] = ref Altman et al., 2011; cited from earlier work
[17] = molecular target: T6, SYK(S550Y)-NL; assay: NanoBRET assay in digitonin permeabilized HEK293 cells, SYK(S550Y)-NL; assay type: cell-based; settings: fixed concentration of tracer 8, average ± SEM, read-out: IC50, SYK(variant)-NL S550Y
Experimental: as §1

Cc1cc(Nc2nccc(C)n2)cc(-c2cnc([C@@]3(O)CC[C@H](C(=O)O)C(C)(C)C3)s2)c1 [MRL-SYKi]
IC50 [1]: 14 ± 5 nM | pSYK(Y525/526) levels via Western blot compared to untreated cells ([2]; 100 nM for 20 h): decrease in pSYK(Y525/526) levels; also recorded: decreased pSYK(Y525/526) levels | pSYK(Y525/526) levels via Western blot compared to untreated cells ([2]; 10 μM for 20 h): decrease in pSYK(Y525/526) levels | off-target kinases less potent than SYK [3]: ≥ 111 fold | IC50 ([4]; intact HEK293 cells, 125 nM tracer 8, average of triplicate ± SEM, read-out: SYK(P342T) IC50): 410 ± 95 nM | Kd ([4]; linearized Cheng-Prusoff analysis, y-intercept, tracer 8, single experiment, read-out: KD, app SYK(P342T)): 179 nM | IC50 ([4]; tracer titration, [Tracer] 15.6 nM, read-out: IC50, SYK(P342T)-NL + 8 + MRL-SYKi): 134 nM | IC50 ([4]; tracer titration, [Tracer] 31.2 nM, read-out: IC50, SYK(P342T)-NL + 8 + MRL-SYKi): 194 nM | IC50 ([4]; tracer titration, [Tracer] 62.5 nM, read-out: IC50, SYK(P342T)-NL + 8 + MRL-SYKi): 371 nM | IC50 ([4]; tracer titration, [Tracer] 125 nM, read-out: IC50, SYK(P342T)-NL + 8 + MRL-SYKi): 365 nM | IC50 ([4]; tracer titration, [Tracer] 250 nM, read-out: IC50, SYK(P342T)-NL + 8 + MRL-SYKi): 498 nM | IC50 [5]: 30 nM | IC50 ([6]; intact HEK293 cells, 125 nM tracer 8, average of triplicate ± SEM, read-out: SYK(S550F) IC50): 250 ± 48 nM | Kd ([6]; linearized Cheng-Prusoff analysis, y-intercept, tracer 8, single experiment, read-out: KD, app SYK(S550F)): 46 nM | IC50 ([6]; tracer titration, [Tracer] 7.8 nM, read-out: IC50, SYK(S550F)-NL + 8 + MRL-SYKi): 29 nM | IC50 ([6]; tracer titration, [Tracer] 15.6 nM, read-out: IC50, SYK(S550F)-NL + 8 + MRL-SYKi): 44 nM | IC50 ([6]; tracer titration, [Tracer] 31.2 nM, read-out: IC50, SYK(S550F)-NL + 8 + MRL-SYKi): 77 nM | IC50 ([6]; tracer titration, [Tracer] 62.5 nM, read-out: IC50, SYK(S550F)-NL + 8 + MRL-SYKi): 98 nM | IC50 ([6]; tracer titration, [Tracer] 125 nM, read-out: IC50, SYK(S550F)-NL + 8 + MRL-SYKi): 157 nM | IC50 ([6]; tracer titration, [Tracer] 250 nM, read-out: IC50, SYK(S550F)-NL + 8 + MRL-SYKi): 190 nM | IC50 [7]: 95 nM | IC50 [8]: 63 nM | selectivity versus the protein kinase family in the KINOMEscan panel [9]: greater than 30 fold | off-target inhibition [10]: no off-target inhibition | Kd ([11]; linearized Cheng-Prusoff analysis, y-intercept, tracer 8, single experiment, read-out: KD, app SYK(S550Y)): 27 nM | IC50 ([11]; [Tracer] 7.8 nM, read-out: IC50, SYK(S550Y)-NL + 8 + MRL-SYKi): 27 nM | IC50 ([11]; [Tracer] 15.6 nM, read-out: IC50, SYK(S550Y)-NL + 8 + MRL-SYKi): 27 nM | IC50 ([11]; [Tracer] 31.2 nM, read-out: IC50, SYK(S550Y)-NL + 8 + MRL-SYKi): 32 nM | IC50 ([11]; [Tracer] 62.5 nM, read-out: IC50, SYK(S550Y)-NL + 8 + MRL-SYKi): 42 nM | IC50 ([11]; [Tracer] 125 nM, read-out: IC50, SYK(S550Y)-NL + 7 + MRL-SYKi): 41 nM | IC50 ([11]; [Tracer] 125 nM, read-out: IC50, SYK(S550Y)-NL + 8 + MRL-SYKi): 74 nM | IC50 ([11]; [Tracer] 250 nM, read-out: IC50, SYK(S550Y)-NL + 7 + MRL-SYKi): 54 nM | IC50 ([11]; [Tracer] 500 nM, read-out: IC50, SYK(S550Y)-NL + 7 + MRL-SYKi): 98 nM | IC50 ([11]; [Tracer] 1000 nM, read-out: IC50, SYK(S550Y)-NL + 7 + MRL-SYKi): 220 nM | IC50 [12]: 4.6 ± 2.6 nM | IC50 [13]: 29 ± 6 nM | IC50 [14]: 10 ± 5 nM | IC50 [15]: 10 nM | cellular activity [16]: < 100 nM | IC50 [17]: 2.1 ± 1 nM
